Assay results as given in ChEMBL document CHEMBL6115007, “Synthesis and in vitro and in vivo evaluation of novel bivalent quinolines as antitumor agents via targeting autophagy in cervical cancer” (Eur J Med Chem, 2025).
Active and inactive are the calls of the source. The rule behind the calls is not given here.

Tests used:
Format in all cases: functional, cell-based
[1] = test system: HeLa; assay: Antiproliferative activity against human HeLa cells assessed as reduction in cell optical density incubated for 48 hrs by MTT assay
[2] = test system: MCF7; assay: Antiproliferative activity against human MCF7 cells assessed as reduction in cell optical density incubated for 48 hrs by MTT assay; settings: MCF7, 48 h
[3] = test system: BGC-823; assay: Antiproliferative activity against human BGC-823 cells assessed as reduction in cell optical density incubated for 48 hrs by MTT assay; settings: BGC-823, 48 h
[4] = test system: A549; assay: Antiproliferative activity against human A549 cells assessed as reduction in cell optical density incubated for 48 hrs by MTT assay; settings: A549, 48 h
[5] = test system: HepG2; assay: Antiproliferative activity against human HepG2 cells assessed as reduction in cell optical density incubated for 48 hrs by MTT assay; settings: HepG2, 48 h
[6] = test system: HCT-116; assay: Antiproliferative activity against human HCT-116 cells assessed as reduction in cell optical density incubated for 48 hrs by MTT assay; settings: HCT-116, 48 h
[7] = test system: HeLa; assay: Induction of autophagy in human HeLa cells transfected with mRFP-GFP-LC3 plasmid assessed as stable RFP fluorescence at 30 uM incubated for 24 hrs by DAPI staining based fluorescence confocal microscopic analysis
[8] = test system: HeLa; assay: Induction of ferroptosis in human HeLa cells assessed as increase in lipid ROS level by measuring rightward shift in fluorescence intensity at 8 uM measured after 12 hrs by C11-BODIPY-581/591 staining based flow cytometric analysis
[9] = test system: Ca-Ski; assay: Induction of ferroptosis in human Ca Ski cells assessed as increase in lipid ROS level by measuring rightward shift in fluorescence intensity at 6 uM measured after 12 hrs by C11-BODIPY-581/591 staining based flow cytometric analysis

Row | Compound | IC50 [1] [µM] | IC50 [2] [µM] | IC50 [3] [µM] | IC50 [4] [nM] | IC50 [5] [µM] | IC50 [6] [µM] | Activity [7] | Activity [8] | Activity [9]
1 | CN1CCN(c2ccnc3cc(OCCCCOc4ccc5c(N6CCN(C)CC6)ccnc5c4)ccc23)CC1 | 146 | > 200 | 136 | 139000 | > 200 | > 200 | – | – | –
2 | CO[C@H]1C[C@@H]2CC[C@@H](C)[C@@](O)(O2)C(=O)C(=O)N2CCCC[C@H]2C(=O)O[C@H]([C@H](C)C[C@@H]2CC[C@@H](O)[C@H](OC)C2)CC(=O)[C@H](C)/C=C(\C)[C@@H](O)[C@@H](OC)C(=O)[C@H](C)C[C@H](C)/C=C/C=C/C=C/1C | – | – | – | – | – | – | Active | – | –
3 | COc1cccc(Nc2ccnc3cc(OCCCCOc4ccc5c(Nc6cccc(OC)c6)ccnc5c4)ccc23)c1 | 48.3 | 47.2 | 63.8 | 142000 | > 200 | > 200 | – | – | –
4 | Fc1cccc(Nc2ccnc3cc(OCCCCOc4ccc5c(Nc6cccc(F)c6)ccnc5c4)ccc23)c1 | 37.3 | 6.79 | 18.7 | 13300 | 10.5 | 17.1 | – | – | –
5 | CN1CCN(c2ccnc3cc(OCCCCCOc4ccc5c(N6CCN(C)CC6)ccnc5c4)ccc23)CC1 | 30.9 | 6.03 | 3.55 | 26000 | 35.1 | 3.85 | – | – | –
6 | COC(=O)c1ccc([C@H]2c3[nH]c4ccccc4c3C[C@H](C(=O)OC)N2C(=O)CCl)cc1 | – | – | – | – | – | – | – | Active | Active

More lines, main results first:

Row | IC50 [1] [µM] | IC50 [2] [µM] | IC50 [3] [µM] | IC50 [4] [nM] | IC50 [5] [µM] | IC50 [6] [µM] | Compound | Activity [7] | Activity [8] | Activity [9]
7 | 4.07 | 5.55 | 3.58 | 6150 | 31.9 | 6.99 | COc1cccc(Nc2ccnc3cc(OCCCCCCOc4ccc5c(Nc6cccc(OC)c6)ccnc5c4)ccc23)c1 | – | – | –
8 | 28.3 | > 200 | 89.4 | 310 | 44.8 | 10.3 | FC(F)(F)Oc1cccc(Nc2ccnc3cc(OCCCCCCOc4ccc5c(Nc6cccc(OC(F)(F)F)c6)ccnc5c4)ccc23)c1 | – | – | –
9 | 14.1 | > 200 | 66 | 2750 | 2.75 | 13.5 | FC(F)(F)Oc1cccc(Nc2ccnc3cc(OCCCCOc4ccc5c(Nc6cccc(OC(F)(F)F)c6)ccnc5c4)ccc23)c1 | – | – | –
10 | 26.1 | 44.3 | 50.2 | 330 | 43.3 | 42.3 | CN1CCN(c2ccnc3cc(OCCCCCCOc4ccc5c(N6CCN(C)CC6)ccnc5c4)ccc23)CC1 | – | – | –
11 | 4.34 | 4.98 | 2.44 | 2550 | 45.4 | 3.28 | Fc1cccc(Nc2ccnc3cc(OCCCCCOc4ccc5c(Nc6cccc(F)c6)ccnc5c4)ccc23)c1 | – | – | –
12 | 14.3 | 38 | 3.35 | 780 | 24.8 | 17.2 | FC(F)(F)Oc1cccc(Nc2ccnc3cc(OCCCCCOc4ccc5c(Nc6cccc(OC(F)(F)F)c6)ccnc5c4)ccc23)c1 | – | – | –
13 | 0.94 | > 200 | 9.82 | 750 | 0.36 | 6.64 | Fc1cccc(Nc2ccnc3cc(OCCCCCCOc4ccc5c(Nc6cccc(F)c6)ccnc5c4)ccc23)c1 | – | – | –
